Positions of bridges follow the written chain, without caps; N, C: chain ends. Non-standard residues stand in square brackets, D forms with d. Residues, ends and D or L forms follow the SMILES beside them. Phe(F5) = N[C@@H](Cc1c(F)c(F)c(F)c(F)c1F)C(=O)O; Phe(4-Cl) = N[C@@H](Cc1ccc(Cl)cc1)C(=O)O; dPhe(4-Cl) = N[C@H](Cc1ccc(Cl)cc1)C(=O)O; Dip = N[C@H](C(=O)O)C(c1ccccc1)c1ccccc1; Phe(3-F) = N[C@@H](Cc1cccc(F)c1)C(=O)O; Phe(4-F) = N[C@@H](Cc1ccc(F)cc1)C(=O)O; 2Nal = N[C@@H](Cc1ccc2ccccc2c1)C(=O)O; d2Nal = N[C@H](Cc1ccc2ccccc2c1)C(=O)O; Phe(2-F) = N[C@@H](Cc1ccccc1F)C(=O)O; 3Pal = N[C@@H](Cc1cccnc1)C(=O)O; Tle = CC(C)(C)[C@H](N)C(=O)O

The subject of the first assay is rat pituitary cells. The assay is classed as cell-based. As to conditions: 3 h. The source says:
Bioassay on the In Vitro Release of Growth Hormone
(a) Rat Pituitary Cell Dispersion
Pituitaries from adult Charles River CD male rats (Wilmington, Mass.) housed under controlled conditions were dispersed and cultured using aseptic technique by modification of previously described methods (Hoefer, M. T., et al., Mol. Cell. Endocrinol. 35:229 (1984); Ben-Jonathan, N., et al., Methods Enzymol. 103:249 (1983); and Heiman, M. L., et al., Endocrinology 116:410 (1985)). Pituitaries were removed from sacrificed rats, sectioned, and then placed into a siliconized, liquid scintillation vial containing 2 ml 0.2% trypsin (Worthington Biochemicals, Freehold, N.J.) in sterile-filtered Krebs-Ringer bicarbonate buffer supplemented with 1% bovine serum albumin, 14 mM glucose, modified Eagle medium (MEM) vitamin solution, and MEM amino acids (Gibco Laboratories, Grand Island, N.Y.) (KRBGA). All glassware was siliconized as described by Sayers, et al., Endocrinology 88:1063 (1971). The fragments were incubated in a water bath for 35 min at 37° C. with agitation. The vial contents then were poured into a scintillation vial containing 2 ml 0.1% DNase (Sigma Chemical Co., St. Louis, Mo.) in KRBGA and incubated for 2 min at 37° C. with agitation. After incubation, the tissue was decanted into a 15 ml centrifuge tube and allowed to settle. Medium was discarded, and pituitary sections were washed 3 times with 1 ml fresh-KRBGA. The cells were then dispersed in 2 ml 0.05% LBI (lima bean trypsin inhibitor, Worthington Biochemicals) by gently drawing the fragments into and expelling them out of a siliconized, fire polished Pasteur pipette. Dispersed cells were then filtered through a 630 μm diameter Nylon mesh (Tetko, Elmsford, N.Y.) into a fresh 15 ml centrifuge tube. An additional 2 ml of 0.05% LBI solution was used to rinse the first tube and was transferred to the second tube with filtering.
The dispersed cells were then further diluted with approximately 15 ml sterile-filtered Dulbecco's modified Eagle medium (GIBCO), which was supplemented with 2.5% fetal calf serum (GIBCO), 3% horse serum (GIBCO), 10% fresh rat serum (stored on ice for no longer than 1 hr) from the pituitary donors, 1% MEM non-essential amino acids (GIBCO), and gentamycin (10 ng/ml; Sigma) and nystatin (10,000 U/ml; GIBCO). The cells were poured into a 50 ml round-bottomed glass extraction flask with a large diameter opening and then randomly plated at a density of approximately 200,000 cells per well (Co-star cluster 24; Rochester Scientific Co., Rochester, N.Y.). The plated cells were maintained in the above Dulbecco's medium in a humidified atmosphere of 95% air and 5% CO2 at 37° C. for 4-5 days.
(c) Experimental Incubation and IC50 Determination
In preparation for a hormone challenge, the cells were washed 3 times with medium 199 (GIBCO) to remove old medium and floating cells. Each treatment well contained a total volume of 1 ml medium 199 containing 1% BSA (fraction V; Sigma) with treatments as described below. Each antagonist candidate was tested using a single 24-well cell culture plate. Each treatment was performed in triplicate. Each plate contained 8 treatment groups: one 1 nM growth hormone releasing factor (GRF) (1-29)NH2-stimulated control group; one 1 nM somatostatin-inhibited control group in the presence of 1 nM GRF(1-29)NH2; and 6 doses of a given antagonist in the presence of both 1 nM SRIF and 1 nM GRF per plate. After 3 hrs at 37° C. in a air/carbon dioxide atmosphere (95/5%), the medium was removed and stored at −20° C. until radioimmunoassayed for growth hormone content. IC50's of each antagonist versus 1 nM SRIF were calculated using a computer program (SigmaPlot, Jandel Scientific, San Rafael, Calif.) with the maximum response constrained to the value of the 1 nM GRF(1-29)NH2-stimulated control.
Regarding `CC(C)[C@H](NC(=O)[C@H](CCCCN)NC(=O)[C@@H](Cc1c[nH]c2ccccc12)NC(=O)[C@H](Cc1ccc(O)cc1)NC(=O)[C@@H](Cc1ccc(Cl)cc1)NC(=O)[C@@H](N)Cc1ccc2ccccc2c1)C(=O)N[C@@H](Cc1ccccc1)C(=O)N[C@H](C(N)=O)[C@@H](C)O` [Analog No. 1, H2-β-Nal-D-Cpa-Tyr-D-Trp-Lys-Val-Phe-Thr-NH2] (H-[2Nal][dPhe(4-Cl)]Y[dW]KVFT-NH2), 3030 nM corresponded to half-maximal inhibition (IC50).

For `CC(C)[C@@H]1NC(=O)[C@H](CCCCN)NC(=O)[C@@H](Cc2c[nH]c3ccccc23)NC(=O)[C@H](Cc2cccnc2)NC(=O)[C@H](NC(=O)[C@@H](N)Cc2ccc3ccccc3c2)CSSC[C@@H](C(=O)N[C@@H](Cc2ccc3ccccc3c2)C(N)=O)NC1=O` [Analog No. 3, H2-β-Nal-D-Cys-Pal-D-Trp-Lys-Val-Cys-β-Nal-NH2] (H-[2Nal][dC][3Pal][dW]KVC[2Nal]-NH2; disulfide 2-7), the IC50 is 10 nM.

With `CC(C)[C@@H]1NC(=O)[C@H](CCCCN)NC(=O)[C@@H](Cc2c[nH]c3ccccc23)NC(=O)[C@H](Cc2cccnc2)NC(=O)[C@H](NC(=O)[C@@H](N)Cc2ccccc2)CSSC[C@@H](C(=O)N[C@@H](Cc2ccc3ccccc3c2)C(N)=O)NC1=O` [Analog No. 4, H2-Phe-D-Cys-Pal-D-Trp-Lys-Val-Cys-β-Nal-NH2] (H-F[dC][3Pal][dW]KVC[2Nal]-NH2; disulfide 2-7), the IC50 was 30 nM.

Turning to `CC(=O)N[C@@H](Cc1ccc2ccccc2c1)C(=O)N[C@@H]1CSSC[C@@H](C(=O)N[C@@H](Cc2ccc3ccccc3c2)C(N)=O)NC(=O)[C@H](C(C)C)NC(=O)[C@H](CCCCN)NC(=O)[C@@H](Cc2c[nH]c3ccccc23)NC(=O)[C@H](Cc2ccc(O)cc2)NC1=O` [Analog No. 5, (H)(CH3CO)-β-Nal-D-Cys-Tyr-D-Trp-Lys-Val-Cys-β-Nal-NH2] (Ac-[2Nal][dC]Y[dW]KVC[2Nal]-NH2; disulfide 2-7), the IC50 is 60 nM.

`C[C@@H](O)[C@H](NC(=O)[C@@H]1CSSC[C@@H](NC(=O)[C@@H](N)Cc2ccccc2)C(=O)N[C@@H](Cc2cccnc2)C(=O)N[C@H](Cc2c[nH]c3ccccc23)C(=O)N[C@@H](CCCCN)C(=O)N[C@@H]([C@@H](C)O)C(=O)N1)C(N)=O` [Analog No. 6, H2-Phe-D-Cys-Pal-D-Trp-Lys-Thr-Cys-Thr-NH2] (H-F[dC][3Pal][dW]KTCT-NH2; disulfide 2-7) had an IC50 of 900 nM.

As to `CC(C)(C)[C@@H]1NC(=O)[C@H](CCCCN)NC(=O)[C@@H](Cc2c[nH]c3ccccc23)NC(=O)[C@H](Cc2cccnc2)NC(=O)[C@H](NC(=O)[C@H](N)Cc2ccc(Cl)cc2)CSSC[C@@H](C(=O)N[C@@H](Cc2ccc(Cl)cc2)C(N)=O)NC1=O` [Analog No. 7, H2-D-p-Cl-Phe-D-Cys-Pal-D-Trp-Lys-Tle-Cys-p-Cl-Phe-NH2] (H-[dPhe(4-Cl)][dC][3Pal][dW]K[Tle]C[Phe(4-Cl)]-NH2; disulfide 2-7), the IC50 is 71 nM.

For `CC(C)[C@H](NC(=O)[C@H](CCCCN)NC(=O)[C@@H](Cc1c[nH]c2ccccc12)NC(=O)[C@H](Cc1ccc(O)cc1)NC(=O)[C@@H](Cc1ccc(Cl)cc1)NC(=O)[C@H](N)Cc1ccc2ccccc2c1)C(=O)N[C@@H](Cc1ccccc1)C(=O)N[C@H](C(N)=O)[C@@H](C)O` [Analog No. 8, H2-D-β-Nal-D-Cpa-Tyr-D-Trp-Lys-Val-Phe-Thr-NH2] (H-[d2Nal][dPhe(4-Cl)]Y[dW]KVFT-NH2), the IC50 is 3960 nM.

As to `CC(C)[C@@H]1NC(=O)[C@H](CCCCN)NC(=O)[C@@H](Cc2c[nH]c3ccccc23)NC(=O)[C@H](Cc2cccnc2)NC(=O)[C@H](NC(=O)[C@@H](N)C(c2ccccc2)c2ccccc2)CSSC[C@@H](C(=O)N[C@H](C(N)=O)C(c2ccccc2)c2ccccc2)NC1=O` [Analog No. 10, H2-Dip-D-Cys-Pal-D-Trp-Lys-Val-Cys-Dip-NH2] (H-[Dip][dC][3Pal][dW]KVC[Dip]-NH2; disulfide 2-7), 620 nM corresponded to half-maximal inhibition (IC50).

In turn, `CC(C)[C@@H]1NC(=O)[C@H](CCCCN)NC(=O)[C@@H](Cc2c[nH]c3ccccc23)NC(=O)[C@H](Cc2c[nH]cn2)NC(=O)[C@H](NC(=O)[C@@H](N)Cc2c(F)c(F)c(F)c(F)c2F)CSSC[C@@H](C(=O)N[C@@H](Cc2c(F)c(F)c(F)c(F)c2F)C(N)=O)NC1=O` [Analog No. 11, H2—F5-Phe-D-Cys-His-D-Trp-Lys-Val-Cys-F5-Phe-NH2] (H-[Phe(F5)][dC]H[dW]KVC[Phe(F5)]-NH2; disulfide 2-7) yielded an IC50 of 720 nM.

`CC(C)[C@@H]1NC(=O)[C@H](CCCCN)NC(=O)[C@@H](Cc2c[nH]c3ccccc23)NC(=O)[C@H](Cc2cccnc2)NC(=O)[C@H](NC(=O)[C@@H](N)Cc2ccc(F)cc2)CSSC[C@@H](C(=O)N[C@@H](Cc2ccc(F)cc2)C(N)=O)NC1=O` [Analog No. 12, H2-p-F-Phe-D-Cys-Pal-D-Trp-Lys-Val-Cys-p-F-Phe-NH2] (H-[Phe(4-F)][dC][3Pal][dW]KVC[Phe(4-F)]-NH2; disulfide 2-7) had a half-maximal inhibitory concentration (IC50) of 56 nM.

In the case of `CC(C)[C@@H]1NC(=O)[C@H](CCCCN)NC(=O)[C@@H](Cc2c[nH]c3ccccc23)NC(=O)[C@H](Cc2cccnc2)NC(=O)[C@H](NC(=O)[C@@H](N)C(c2ccccc2)c2ccccc2)CSSC[C@@H](C(=O)N[C@@H](Cc2ccc3ccccc3c2)C(N)=O)NC1=O` [Analog No. 13, H2-Dip-D-Cys-Pal-D-Trp-Lys-Val-Cys-β-Nal-NH2] (H-[Dip][dC][3Pal][dW]KVC[2Nal]-NH2; disulfide 2-7), the midpoint of inhibition, the IC50, lay at 110 nM.

For the molecule `CC(C)[C@@H]1NC(=O)[C@H](CCCCN)NC(=O)[C@@H](Cc2c[nH]c3ccccc23)NC(=O)[C@H](Cc2cccnc2)NC(=O)[C@H](NC(=O)[C@@H](N)Cc2cccc(F)c2)CSSC[C@@H](C(=O)N[C@@H](Cc2cccc(F)c2)C(N)=O)NC1=O` [Analog No. 14, H2-m-F-Phe-D-Cys-Pal-D-Trp-Lys-Val-Cys-m-F-Phe-NH2] (H-[Phe(3-F)][dC][3Pal][dW]KVC[Phe(3-F)]-NH2; disulfide 2-7), the midpoint of inhibition, the IC50, lay at 110 nM.

As for `CC(C)[C@@H]1NC(=O)[C@H](CCCCN)NC(=O)[C@@H](Cc2c[nH]c3ccccc23)NC(=O)[C@H](Cc2cccnc2)NC(=O)[C@H](NC(=O)[C@@H](N)Cc2ccccc2F)CSSC[C@@H](C(=O)N[C@@H](Cc2ccccc2F)C(N)=O)NC1=O` [Analog No. 15, H2-o-F-Phe-D-Cys-Pal-D-Trp-Lys-Val-Cys-o-F-Phe-NH2] (H-[Phe(2-F)][dC][3Pal][dW]KVC[Phe(2-F)]-NH2; disulfide 2-7), the IC50 was 140 nM.

The same assay, now with this note: cultured rat pituitary cells; 1 nM SRIF and 1 nM GRF(1-29)NH2; 3 hrs at 37° C.; growth hormone by radioimmunoassay; read-out: IC50 of antagonist versus 1 nM SRIF (growth hormone release).
As to `CC(C)[C@@H]1NC(=O)[C@H](CCCCN)NC(=O)[C@@H](Cc2c[nH]c3ccccc23)NC(=O)[C@H](Cc2ccc(O)cc2)NC(=O)[C@H](NC(=O)[C@@H](N)Cc2ccc3ccccc3c2)CSSC[C@@H](C(=O)N[C@@H](Cc2ccc3ccccc3c2)C(N)=O)NC1=O` [Analog No. 2, H2-β-Nal-D-Cys-Tyr-D-Trp-Lys-Val-Cys-β-Nal-NH2] (H-[2Nal][dC]Y[dW]KVC[2Nal]-NH2; disulfide 2-7), the IC50 was 40 nM.

In the case of `CC(C)[C@@H]1NC(=O)[C@H](CCCCN)NC(=O)[C@@H](Cc2c[nH]c3ccccc23)NC(=O)[C@H](Cc2ccc(O)cc2)NC(=O)[C@H](NC(=O)[C@H](N)Cc2ccc3ccccc3c2)CSSC[C@@H](C(=O)N[C@@H](Cc2ccc3ccccc3c2)C(N)=O)NC1=O` [Analog No. 9, H2-D-β-Nal-D-Cys-Tyr-D-Trp-Lys-Val-Cys-β-Nal-NH2] (H-[d2Nal][dC]Y[dW]KVC[2Nal]-NH2; disulfide 2-7), the IC50 came to 1360 nM.

For orientation: IC50 means the midpoint of a concentration-inhibition curve.
